In brackets after ≈: the same amount, converted by molar mass.

Experiment [1] concerns Staphylococcus aureus. Kind of experiment: Antibacterial activity against Staphylococcus aureus ATCC 6538. It is filed as functional.
A short description of experiment [2]: Cytotoxicity against human F1 cells after 48 hrs. It is filed as cell-based. The settings on record: F1, 48 h.
Experiment [3] concerns MCF7. In words: Cytotoxicity against MCF7 cells after 48 hrs. It counts as cell-based. The settings on record: Homo sapiens, MCF7, 48 h.

As a reminder, the MIC is the lowest concentration found to suppress growth. In general, IC50 refers to the concentration needed to halve the response being measured. In experiment [1], `C[C@H]1CCCCC(CCCC(Cl)Cl)c2c(O)cc(cc2O)[C@H](OC(N)=O)[C@@H](C)CCCCC(CCCC(Cl)Cl)c2c(O)cc(cc2O)[C@@H]1OC(N)=O` (some centres undefined) [CARBAMIDOCYCLOPHANE A] had an MIC of 100 µM (≈ 80.9 µg/mL). Also, the results for the IC50 in experiment [2] and in experiment [3] were 3300 nM and 860 nM, respectively.

`C[C@H]1CCCCC(CCCCCl)c2c(O)cc(cc2O)[C@H](OC(N)=O)[C@@H](C)CCCCC(CCCC(Cl)Cl)c2c(O)cc(cc2O)[C@@H]1OC(N)=O` (some centres undefined) [CARBAMIDOCYCLOPHANE B]: the MIC in experiment [1] was 40 µM (≈ 31 µg/mL). Besides, the figures for the IC50 in experiment [2] and in experiment [3] were 4200 nM and 1800 nM, respectively.

In turn, `CCCCC1CCCC[C@H](C)[C@@H](OC(N)=O)c2cc(O)c(c(O)c2)C(CCCC(Cl)Cl)CCCC[C@H](C)[C@@H](OC(N)=O)c2cc(O)c1c(O)c2` (some centres undefined) [CARBAMIDOCYCLOPHANE C] yielded a minimal inhibitory concentration (MIC) in experiment [1] of 60 µM (≈ 44.4 µg/mL). Also, the IC50 is 5100 nM in experiment [2] and 2200 nM in experiment [3].

The record behind these values is ChEMBL document CHEMBL1142108, “Carbamidocyclophanes A-E, chlorinated paracyclophanes with cytotoxic and antibiotic activity from the Vietnamese cyanobacterium Nostoc sp” (J Nat Prod, 2007).
